The values below come from US20230265116A1, “DEGRADATION OF (EGFR) BY CONJUGATION OF EGFR INHIBITORS WITH E3 LIGASE LIGAND AND METHODS OF USE” (BEIGENE, LTD., priority 2020, published 2023).

Type in all cases: cell-based
Experiment [1] concerns EGFR Del19/T790M/C797S (H1975-clone #28). Kind of experiment: EGFR degradation HTRF assay, H1975-clone #28 DTC cells. Summed up:
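Lentiviral Del19/T790M/C797S (clone #28) or Del19/C797S (clone #23) EGFR expressed in H1975 with endogenous EGFR knocked out. Cells treated 16 h, 37 °C, 8 doses, 5-fold from 10 uM top, 0.2% DMSO; EGFR read by HTRF after lysis. Degradation % vs DMSO control; DC50, Dmax from four-parameter fit.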

Experiment [2] concerns the target T1, EGFR L858R/C797S (BaF3 LC cells) (Homo sapiens, UniProt P00533, C797S/L858R).
T1 construct: expressed in transfected cells; host or cells: BaF3
Kind of experiment: EGFR degradation HTRF assay, BaF3 LC cells.

Experiment [3] relates to EGFR Del19/C797S (H1975-clone #23). Nature of the experiment: EGFR degradation HTRF assay, H1975-clone #23 DC cells. Conditions: for H1975 #23 DC Dmax (%): maximum percentage of degradation. As for the experimental part: H1975-clone #28(Del19/T790M/C797S) and H1975-clone #23(Del19/C797S). EGFR-Del19/T790M/C797S and EGFR-Del19/C797S were stably expressed in H1975 cell lines by lentivirus-mediated over-expression, respectively. The EGFR over-expressed cells then underwent gene knockout, in which the EGFR targeting sgRNA was designed to only target the endogenous EGFR copies and preserve the exogenous EGFR copies. Followed by the gene knockout, the edited H1975 cells were seeded in 96 well plates at the concentration of 1 cell/well, cultured for about 2 weeks to allow single clones formation. The formed clones were screened by DNA sequencing and whole exon sequencing analysis for the desired edition. H1975-clone #28 and H1975-clone #23 were finally confirmed as homozygous Del19/T790M/C797S EGFR and Del19/C797S EGFR clones, respectively.
BaF3 WT(wild type), BaF3-LTC(L858R/T790M/C797S) and BaF3-DTC(Del19/T790M/C797S) cells are treated with compounds diluted in 0.2% DMSO cell culture medium and incubate for 16h, 37° C., 5% CO2, H1975-#36, H1975-#28, H1975-#23 and HCC827 cells are treated with compounds diluted in 0.2% DMSO cell culture medium on day 2, incubate for 16h, 37° C., 5% CO2.the final concentriation of compounds in all assay is start with 10 uM, 5-fold dilution, total 8 doses were included.
After 16h treatment, add HTRF lysis buffer to each well; seal the plate and incubate 1 hour at room temperature on a plate shaker; Once the cells are lysed, 16 μL of cell lysate are transferred to a PE 384-well HTRF detection plate; 4 μL of pre-mixed HTRF antibodies are added to each well; Cover the plate with a plate sealer, spin 1000 rpm for 1 min, Incubate overnight at room temperature; Read on BMG PheraStar with HTRF protocol (337 nm-665 nm-620 nm).
The inhibition (degradation) percentage of the compound was calculated by the following equation: Inhibition percentage of Compound=100-100×(Signal-low control)/(High control-low control), wherein signal=each test compound group
High control=Cell group with added DMSO and without compound, indicating microplate readings without EGFR degradation;
Dmax is the maximum percentage of inhibition (degradation).
The IC50 (DC50) value of a compound can be obtained by fitting the following equation
Y=Bottom+(TOP−Bottom)/(1+((IC50/X)^hillslope))
Wherein, X and Y are known values, and IC50, Hillslope, Top and Bottom are the parameters obtained by fitting with software. Y is the inhibition percentage (calculated from the equation), X is the concentration of the compound; IC50 is the concentration of the compound when the 50% inhibition is reached. The smaller the IC50 value is, the stronger the inhibitory ability of the compound is. Vice versa, the higher the IC50 value is, the weaker the inhibitory ability of the compound is; Hillslope represents the slope of the fitted curve, generally around 1*; Bottom represents the minimum value of the curve obtained by data fitting, which is generally 0%±20%; Top represents the maximum value of the curve obtained by data fitting, which is generally 100%±20%. The experimental data were fitted by calculating and analyzing with Dotmatics data analysis software.

For experiment [4], the target named is T2, EGFR L858R/T790M/C797S (BaF3-LTC cells) (Homo sapiens, UniProt P00533, C797S/L858R/T790M).
T2 construct: expressed in transfected cells; host or cells: BaF3
Nature of the experiment: EGFR degradation HTRF assay, BaF3-LTC cells. The method, boiled down: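 EGFR remaining after a 16 h, 37 °C exposure (8 doses, 5-fold steps from 10 uM final, 0.2% DMSO) was quantified by HTRF antibodies in cell lysate. Percent inhibition relative to DMSO control was fitted by four-parameter logistic to give DC50; Dmax denotes maximal degradation.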

Setting [5] is: H1975 # 28 DTC cells; EGFR degradation, IC50 (DC50) from curve fit; read-out: DC50(nM) H1975 # 28 DTC.
The mark [6] stands for this setting: H1975 # 28 DTC cells; maximum percentage of inhibition (degradation).
Setting [7] is: BaF3 LC, 16h treatment, maximum percentage of degradation; read-out: BaF3 LC Dmax (%).
The mark [8] stands for this setting: BaF3 LC, 16h treatment; read-out: BaF3 LC DC50.
Where [9] appears, read: H1975 #23 DC, 16h treatment, read-out: H1975 #23 DC DC50.
Where [10] appears, read: BaF3-LTC cells; EGFR degradation, IC50 (DC50) from curve fit; read-out: DC50(nM) BaF3-LTC.
Setting [11] is: BaF3-LTC cells; maximum percentage of inhibition (degradation); read-out: Dmax (%) BaF3-LTC.

SMILES strings stand for the structures. Where two headings read alike, the source gives them in different places.

T1 sequence (P00533 25-1210 C797S/L858R): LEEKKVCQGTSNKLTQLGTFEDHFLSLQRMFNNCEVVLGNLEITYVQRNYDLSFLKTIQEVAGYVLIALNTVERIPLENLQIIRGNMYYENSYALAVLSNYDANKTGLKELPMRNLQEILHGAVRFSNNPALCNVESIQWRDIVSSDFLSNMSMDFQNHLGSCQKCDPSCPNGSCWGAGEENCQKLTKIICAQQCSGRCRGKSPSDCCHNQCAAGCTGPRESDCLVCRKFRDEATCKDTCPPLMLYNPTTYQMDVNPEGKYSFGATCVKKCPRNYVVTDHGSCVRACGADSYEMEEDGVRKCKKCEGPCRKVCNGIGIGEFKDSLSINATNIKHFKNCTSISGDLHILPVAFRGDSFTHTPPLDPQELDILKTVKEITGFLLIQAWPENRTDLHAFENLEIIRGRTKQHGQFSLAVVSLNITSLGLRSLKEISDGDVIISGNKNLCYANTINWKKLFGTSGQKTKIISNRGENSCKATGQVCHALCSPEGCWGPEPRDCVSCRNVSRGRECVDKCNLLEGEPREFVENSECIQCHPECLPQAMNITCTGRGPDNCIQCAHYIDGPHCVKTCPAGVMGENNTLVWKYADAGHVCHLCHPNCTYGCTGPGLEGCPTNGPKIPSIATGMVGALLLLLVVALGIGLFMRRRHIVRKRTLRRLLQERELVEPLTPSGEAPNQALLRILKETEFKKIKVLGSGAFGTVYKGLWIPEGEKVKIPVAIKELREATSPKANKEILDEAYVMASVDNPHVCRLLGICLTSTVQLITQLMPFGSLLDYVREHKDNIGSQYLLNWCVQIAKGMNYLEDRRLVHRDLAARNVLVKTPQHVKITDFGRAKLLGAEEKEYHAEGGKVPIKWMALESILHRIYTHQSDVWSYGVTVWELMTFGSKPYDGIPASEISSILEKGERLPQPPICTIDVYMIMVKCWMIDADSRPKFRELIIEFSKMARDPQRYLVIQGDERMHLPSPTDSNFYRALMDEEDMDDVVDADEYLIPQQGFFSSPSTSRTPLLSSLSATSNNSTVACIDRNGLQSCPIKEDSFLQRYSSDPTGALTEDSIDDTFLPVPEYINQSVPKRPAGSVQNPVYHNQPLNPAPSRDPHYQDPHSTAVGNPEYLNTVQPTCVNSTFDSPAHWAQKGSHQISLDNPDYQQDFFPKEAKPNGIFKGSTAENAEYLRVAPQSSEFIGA
T2 sequence (P00533 25-1210 T790M/C797S/L858R): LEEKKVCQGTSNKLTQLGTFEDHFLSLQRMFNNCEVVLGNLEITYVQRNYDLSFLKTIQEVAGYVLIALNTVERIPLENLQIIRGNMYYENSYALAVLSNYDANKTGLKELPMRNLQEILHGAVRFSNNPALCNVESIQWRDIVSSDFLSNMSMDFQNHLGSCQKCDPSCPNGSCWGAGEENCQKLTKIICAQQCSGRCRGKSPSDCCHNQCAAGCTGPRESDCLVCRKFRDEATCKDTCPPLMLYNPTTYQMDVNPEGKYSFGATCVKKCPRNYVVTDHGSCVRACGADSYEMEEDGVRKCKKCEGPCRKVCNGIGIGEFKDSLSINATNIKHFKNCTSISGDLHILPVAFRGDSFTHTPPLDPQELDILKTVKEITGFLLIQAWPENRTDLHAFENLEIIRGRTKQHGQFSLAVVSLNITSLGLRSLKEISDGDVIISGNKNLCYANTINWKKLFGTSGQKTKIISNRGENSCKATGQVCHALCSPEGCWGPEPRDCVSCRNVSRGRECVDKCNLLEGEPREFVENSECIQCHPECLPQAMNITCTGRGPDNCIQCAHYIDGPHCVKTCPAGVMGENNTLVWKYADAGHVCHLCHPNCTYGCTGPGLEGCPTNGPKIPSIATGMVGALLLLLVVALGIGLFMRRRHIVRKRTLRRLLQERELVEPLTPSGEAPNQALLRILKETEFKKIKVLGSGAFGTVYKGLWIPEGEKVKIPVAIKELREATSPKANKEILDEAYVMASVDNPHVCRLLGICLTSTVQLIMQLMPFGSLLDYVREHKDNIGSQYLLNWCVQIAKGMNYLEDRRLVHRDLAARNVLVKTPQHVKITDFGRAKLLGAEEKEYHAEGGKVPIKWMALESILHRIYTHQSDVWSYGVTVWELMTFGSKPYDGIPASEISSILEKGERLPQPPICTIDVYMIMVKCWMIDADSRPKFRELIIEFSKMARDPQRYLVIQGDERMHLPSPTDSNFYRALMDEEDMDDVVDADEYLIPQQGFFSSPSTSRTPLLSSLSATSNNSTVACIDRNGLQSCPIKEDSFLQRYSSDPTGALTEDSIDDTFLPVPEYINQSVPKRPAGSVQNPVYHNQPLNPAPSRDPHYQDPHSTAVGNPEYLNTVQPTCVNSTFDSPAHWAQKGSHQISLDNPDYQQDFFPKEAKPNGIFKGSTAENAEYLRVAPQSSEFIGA

For the molecule `CCOc1cc(N2CCC(N3CCN(CCc4cc(F)c(F)c5c4oc(=O)n5C4CCC(=O)NC4=O)CC3)CC2)c(CC)cc1Nc1ncc(Br)c(Nc2ccc3nc(CC)ccc3c2P(C)(C)=O)n1` (centres unmarked) [Example 474, 3-(7-(2-(4-(1-(4-((5-bromo-4-((5-(dimethylphosphoryl)-2-ethylquinolin-6-yl)amino)pyrimidin-2-yl)amino)-5-ethoxy-2-ethylphenyl)piperidin-4-yl)piperazin-1-yl)ethyl)-4,5-difluoro-2-oxobenzo[d]oxazol-3(2H)-yl)piperidine-2,6-dione], the DC50 in experiment [1] (setting [5]) turned out to be 1.15 nM; in experiment [2] (setting [8]), 30.4 nM; in experiment [3] (setting [9]) it was 2.65 nM; in experiment [4] (setting [10]), 12 nM. Besides, in experiment [1] (setting [6]), the “Dmax (%) H1975 # 28 DTC” value came to 73.43%. Also, the Dmax in experiment [2] (setting [7]) is 81.1%; in experiment [4] (setting [11]), 79.2%. For the same molecule, the “H1975 #23 DC Dmax (%)” value in experiment [3] (16h treatment) was found to be 68.97%.

For the molecule `CCOc1cc(N2CCC(N3CCN(CC4CN(c5cc(F)cc6c5oc(=O)n6C5CCC(=O)NC5=O)C4)CC3)CC2)c(CC)cc1Nc1ncc(Br)c(Nc2ccc3nc(CC)ccc3c2P(C)(C)=O)n1` (centres unmarked) [Example 479, 3-(7-(3-((4-(1-(4-((5-bromo-4-((5-(dimethylphosphoryl)-2-ethylquinolin-6-yl)amino)pyrimidin-2-yl)amino)-5-ethoxy-2-ethylphenyl)piperidin-4-yl)piperazin-1-yl)methyl)azetidin-1-yl)-5-fluoro-2-oxobenzo[d]oxazol-3(2H)-yl)piperidine-2,6-dione], the DC50 in experiment [1] (setting [5]) stood at 2.81 nM; in experiment [2] (setting [8]) it was 20.3 nM; in experiment [3] (setting [9]), 4.91 nM; in experiment [4] (setting [10]), 7.8 nM. In addition, the “Dmax (%) H1975 # 28 DTC” value in experiment [1] (setting [6]) was found to be 95.6%. In addition, the greatest degradation seen (Dmax) in experiment [2] (setting [7]) was found to be 82.7%; in experiment [4] (setting [11]) it was 88.8%. Moreover, the “H1975 #23 DC Dmax (%)” value in experiment [3] (16h treatment) was 76.53%.

In the case of `CCOc1cc(N2CCC(N3CCN(C(=O)C4CCN(c5cccc6c5oc(=O)n6C5CCC(=O)NC5=O)CC4)CC3)CC2)c(CC)cc1Nc1ncc(Br)c(Nc2ccc3nc(CC)ccc3c2P(C)(C)=O)n1` (centres unmarked) [Example 481, 3-(7-(4-(4-(1-(4-((5-bromo-4-((5-(dimethylphosphoryl)-2-ethylquinolin-6-yl)amino)pyrimidin-2-yl)amino)-5-ethoxy-2-ethylphenyl)piperidin-4-yl)piperazine-1-carbonyl)piperidin-1-yl)-2-oxobenzo[d]oxazol-3(2H)-yl)piperidine-2,6-dione], the “Dmax (%) H1975 # 28 DTC” value in experiment [1] (setting [6]) was found to be 77.65%. The DC50 came out at 2.14 nM in experiment [1] (read-out: DC50(nM) H1975 # 28 DTC; H1975 # 28 DTC cells; EGFR degradation, IC50 (DC50) from curve fit); 0.871 nM in experiment [2] (read-out: BaF3 LC DC50; BaF3 LC, 16h treatment); 1.06 nM in experiment [3] (read-out: H1975 #23 DC DC50, 16h treatment); 5.27 nM in experiment [4] (read-out: DC50(nM) BaF3-LTC; BaF3-LTC cells; EGFR degradation, IC50 (DC50) from curve fit). For the same molecule, the greatest degradation seen (Dmax) worked out at 91.9% in experiment [2] (BaF3, read-out: BaF3 LC Dmax (%)) and 86.5% in experiment [4] (read-out: Dmax (%) BaF3-LTC, BaF3-LTC cells; maximum percentage of inhibition (degradation)). Besides, in experiment [3] (16h treatment), the “H1975 #23 DC Dmax (%)” value is recorded as 64.14%.

Turning to `CCOc1cc(N2CCC(N3CCN(CCc4cc(F)c(C5CCC(=O)NC5=O)c(F)c4)CC3)CC2)c(CC)cc1Nc1ncc(Br)c(Nc2ccc3nc(C)ccc3c2P(C)(C)=O)n1` (centres unmarked) [Example 482, 3-(4-(2-(4-(1-(4-((5-bromo-4-((5-(dimethylphosphoryl)-2-methylquinolin-6-yl)amino)pyrimidin-2-yl)amino)-5-ethoxy-2-ethylphenyl)piperidin-4-yl)piperazin-1-yl)ethyl)-2,6-difluorophenyl)piperidine-2,6-dione], the 50% degradation concentration (DC50) in experiment [1] (setting [5]) stood at 1.86 nM; in experiment [2] (setting [8]), 50.8 nM; in experiment [3] (setting [9]) it was 7.2 nM; in experiment [4] (setting [10]), 12.9 nM. In experiment [1] (setting [6]), the “Dmax (%) H1975 # 28 DTC” value stood at 69.65%. The Dmax in experiment [2] (setting [7]) was 73.4%; in experiment [4] (setting [11]), 88.7%. Moreover, the “H1975 #23 DC Dmax (%)” value in experiment [3] (16h treatment) was 70.91%.
